Patent US6068976A, “Modulators of ob gene and screening methods therefor” (priority 1996, dated 2000)
Where two headings read alike, the source gives them in different places. No end group written: not given here.

Experiments:
[1] = system: PPAR nuclear hormone receptors; details: cited from earlier work
[2] = system: human ob promoter; test: Human ob promoter-luciferase reporter in transfected 3T3-L1 cells
[3] = system: ob gene; test: Ex vivo endogenous ob mRNA expression in rat primary adipocytes; assay type: cell-based; details: for ob mRNA expression in primary rat adipocytes: 24 hr; for production of ob messenger RNA in rat primary adipocytes: insulin 100 nM or dexamethasone 33 nM
[4] = system: human ob promoter; test: Human ob promoter-luciferase reporter in transfected rat primary adipocytes
[5] = In vivo body weight, food intake and tissue weights in treated rats; details: for Epidydimal fat pad weight / Liver weight / Body Mass: oral gavage; for Epidydimal fat pad weight: control 2.5 ± 0.3, * p < 0.05; for Liver weight: control 16.8 ± 1.3; for Body Mass: control 344 ± 22; for food consumption: 4 days, triamcinolone 20 or dexamethasone 3.7 μg/g body weight/day
[6] = system: ob gene; test: In vivo ob mRNA levels in adipose tissue of treated rats (Northern/dot blot, actin-normalised); design: species or system rat
[7] = Body weight and food intake of male mice injected with ethinylestradiol; assay type: in vivo, mouse; details: 0.75 μg/g body weight, 7 day
[8] = cited from earlier work
[9] = system: 3T3-F442A and ob 17 cells; details: cited from earlier work
[10] = system: cachexia; details: cancer patients; cited from earlier work
[11] = in vivo; cited from earlier work
[12] = hydrocortisone 100 μg/g body weight, once daily, 20 days
[13] = hydrocortisone 1, 10 or 100 μg/g body weight, s.c., once daily, 20 days
[14] = 4 days, triamcinolone 20 or dexamethasone 3.7 μg/g body weight/day
[15] = fenofibrate 0.5% w/w in food, 14 days

For `O=C(O)COc1cc(Cl)c(Cl)cc1Cl` [2,4,5-trichlorophenoxyacetic acid], the “transcriptional activity of PPARs” value [1] is given as “transcriptional activity of the PPARs can be induced”.

In the case of `CC(C)(Oc1ccc(Cl)cc1)C(=O)O` [Clofibric acid], the “transcriptional activity of PPARs” value [1] is given as “stimulate transcriptional activity of the PPAR nuclear hormone receptors”.

In the case of `CN(CCOc1ccc(CC2SC(=O)NC2=O)cc1)c1ccccn1` (centres unmarked) [BRL 49653, 5-[[4-[2-(methyl-2-pyridinylamino)ethoxy]phenyl]methyl]-2,4-thiazolidinedione], the “effect on pGL3-OB1 in addition to PPARγ” value ([2]; with PPARγ cotransfection) is reported as “slight cumulative effect”, the “ob mRNA expression in primary rat adipocytes” value ([3]; 100 μM, three independent experiments) is reported as “reduced ob mRNA expression significantly” and the “suppression of ob gene expression by PPARγ in primary adipocytes” value ([3]; primary adipocytes) is reported as “amplifies the suppression of ob gene expression by PPARγ in primary adipocytes”. For the same molecule, the “additional effect on ob promoter activity” value ([4]; 10 μM, with PPARγ cotransfection) was “no further effect”, the activity at 10 µM ([4]; Homo sapiens, Adipocyte, read-out: ob promoter activity reduced to) was 40% and the “body or liver weight” value ([5]; 0, 1, 2, and 5 mg/kg/day over 7 days) was “no change in either body or liver weight”. For the same molecule, the “ratio of adipose tissue/body weight after treatment” value ([5]; 5 mg/kg/day, 7 days, 0.75%±0.1 before, p<0.05) was 1.2%±0.2, the food intake ([5]; 5, 10, 20 mg/kg/day over 7 days) was “significant dose dependent increase in food intake” and the “Epidydimal fat pad weight” value ([5]; BRL 49653 1 mg/kg/day, 7 days) was 3.3 ± 0.2 g. For the same molecule, the Liver weight ([5]; BRL 49653 1 mg/kg/day, 7 days) was 17.9 ± 1.3 g, the “Body Mass” value ([5]; BRL 49653 1 mg/kg/day, 7 days, mean ± SD) was 355 ± 21 g and the “Epidydimal fat pad weight” value ([5]; BRL 49653 2 mg/kg/day, 7 days) was 3.8 ± 0.5 g. For the same molecule, the Liver weight ([5]; BRL 49653 2 mg/kg/day, 7 days) was 18.9 ± 0.6 g, the “Body Mass” value ([5]; BRL 49653 2 mg/kg/day, 7 days) was 361 ± 18 g and the “Epidydimal fat pad weight” value ([5]; BRL 49653 5 mg/kg/day, 7 days) was 4.0 ± 0.6 g. The Liver weight ([5]; BRL 49653 5 mg/kg/day, 7 days) was 17.4 ± 1.8 g, the “Body Mass” value ([5]; BRL 49653 5 mg/kg/day, 7 days) was 338 ± 9 g and the “epidydimal fat pad weight (trend)” value ([5]; BRL 49653 1, 2, 5 mg/kg/day, 7 days) was “dose-dependent increase in epidydimal fat pad weight”. The “food intake and body weight (summary statement)” value ([5]; rats) was “increasing food intake and body weight in rats”, the food intake ([5]; relatively low doses (1, 2, 5 mg/kg/day), 7 days) was “food intake showed a tendency to decrease, although no statistical significance was obtained” and the “effect on ob mRNA expression, dose dependence” value ([6]; BRL 49653 0, 1, 2 or 5 mg/kg/day, 7 days) was “dose-dependent”. For the same molecule, the “decrease of ob mRNA levels in epidydimal fat pads” value ([6]; BRL 49653 5 mg/kg/day, 7 days) was 40%.

For `C#C[C@]1(O)CC[C@H]2[C@@H]3CCc4cc(O)ccc4[C@H]3CC[C@@]21C` [ethinyl estradiol, ethinylestradiol], the “decrease in body weight” value ([7]; injected, sham +1.81±1.04%) is listed as 14.83±1.44%, the food intake ([7]; male mice) is listed as “important reduction in food intake” and the “body weight effect under pair-feeding” value ([8]; ovariectomized rats, pair-fed) is listed as “pair-feeding abolished the effects of estrogens on body weight”. The body weight ([8]; ovariectomized rats, substitution therapy) was “marked effect on body weight in ovariectomized rats”.

`CCc1ccc(CCOc2ccc(CC3SC(=O)NC3=O)cc2)nc1` (centres unmarked) [Pioglitazone, pioglitazone] showed an inhibition at 10 µM ([4]; Homo sapiens, Adipocyte, read-out: decrease in pGL3-OB1 expression) of ~30% and an inhibition at 10 µM ([4]; Homo sapiens, Adipocyte, read-out: inhibition of pGL3-OB1 expression) of ~50%.

For `C[C@]12CCC(=O)C=C1CC[C@@H]1[C@@H]2[C@@H](O)C[C@@]2(C)[C@H]1CC[C@]2(O)C(=O)CO` [hydrocortisone], the “body weight at end of treatment” value ([5]; hydrocortisone 100 μg/g body weight, 20 days) was “slight decrease in body weight”, the body weight gain [5, 12] was “completely prevented this gain in body weight” and the “reduction of food consumption vs untreated animals” value [5, 12] was 10-15%. The body weight gain [5, 13] was “dose-dependent reduction in body weight gain”, the “time of maximal ob mRNA effect” value ([6]; hydrocortisone 100 μg/g body weight/day) was 2 days and the “increase of ob mRNA levels” value ([6]; hydrocortisone 100 μg/g body weight/day, adipose tissue) was “more than 2 fold”. The “ob mRNA levels in adipose tissue” value [6, 13] was “dose-dependent induction of ob mRNA levels in adipose tissue” and the “β-actin mRNA levels” value ([6]; hydrocortisone, entire treatment period) was “remained constant”.

In the case of `CCCCC(CC)COC(=O)c1ccccc1C(=O)OCC(CC)CCCC` (centres unmarked) [di-(2-ethylhexyl)-phtalate], the “transcriptional activity of PPARs” value [1] is listed as “transcriptional activity of the PPARs can be induced”.

In the case of “insulin: insulin (1 U; Actrapid HMge, Novo Nordisk)”, the “ob promoter luciferase expression in response to insulin” value ([2]; pGL3-OB1 in 3T3-L1 cells, insulin, control plasmid unaffected) is reported as “two-fold”, the “production of ob mRNA in primary rat adipocytes” value ([3]; 1 or 10 nM insulin, 10% FBS) is reported as “stimulated the production of ob mRNA in a dose dependent manner” and the “production of ob messenger RNA in rat primary adipocytes” value ([3]; 48 hours) is reported as “stimulated production of the ob messenger RNA”. The “increase of the level of ob mRNA (pGL3B-OB1 luciferase vector)” value ([4]; 200 nM insulin, 10% FBS, primary adipocytes with pGL3B-OB1) was 140%, the “stimulatory effect of insulin on ob mRNA under clamp” value ([6]; hyper- or eu-glycemic clamps) was “maintained when plasma glucose levels were maintained at either high or low levels” and the “ob mRNA level, refeeding plus insulin” value ([6]; refeeding plus insulin after overnight fast) was “no additive effects on ob mRNA level”. For the same molecule, the “increase in adipose tissue ob gene expression relative to fasted rats” value ([6]; single dose insulin (1 U), fasted rats, 4 hours) was 50-60% and the “increase in ob mRNA relative to actin controls” value ([6]; single subcutaneous injection 1 I.U. insulin, 4 hours post injection, fasted rats) was “approximately two-fold increase”.

In the case of `C[C@]12C=CC(=O)C=C1CC[C@H]1[C@@H]3C[C@@H](O)[C@](O)(C(=O)CO)[C@@]3(C)C[C@H](O)[C@@]12F` [triamcinolone], the food consumption [5] is reported as “reduced food consumption” and the “ob mRNA levels” value [6, 14] is reported as “increase of ob mRNA levels”.

In the case of N-propyl-thiouracil, the body weight ([8]; rats, literature) is given as “significant increase in body weight” and the food intake ([8]; rats, literature) is given as “ingest less food”.

In the case of `CC1=C(/C=C/C(C)=C/C=C/C(C)=C/C(=O)O)C(C)(C)CCC1` [Retinoic acid], the adipogenesis [9] is listed as “inhibit adipogenesis”.

In the case of `CC(=O)CCCCn1c(=O)c2c(ncn2C)n(C)c1=O` [pentoxifylline], the reduction of cachexia [10] is given as “improve the conditions of some patients”.

For `CC(COc1ccccc1)N(CCCl)Cc1ccccc1` (centres unmarked) [phenoxybenzamide], the “weight gain and fat accumulation” value [11] is given as “prevents weight gain and fat accumulation”.

In the case of “corticotropin-releasing hormone: corticotropin-releasing hormone (SEEPPISLDLTFHLLREVLEMARAEQLAQQAHSNRKLMEII; ends and bridges not checked; UniProt P06850 154-194, looked up)”, the body weight ([8]; hypothalamic administration, fat rats) is given as “reduces body weight”.

For `CC(C)(Oc1ccc(Cl)cc1)C(=O)OCCOC(=O)c1cccnc1` [etiofibrate], the “transcriptional activity of PPARs” value [1] is listed as “stimulate transcriptional activity of the PPAR nuclear hormone receptors”.

For `CC(C)(Oc1ccc(C(=O)c2ccc(Cl)cc2)cc1)C(=O)O` [fenofibric acid], the “ob mRNA expression in primary rat adipocytes” value ([3]; 250 μM) was “no effect of fenofibrate on ob mRNA levels was detected”.

In the case of `Cc1ccc(C)c(OCCCC(C)(C)C(=O)O)c1` [gemfibrozil], the “transcriptional activity of PPARs” value [1] is given as “stimulate transcriptional activity of the PPAR nuclear hormone receptors”.

For `N[C@@H](Cc1cc(I)c(Oc2cc(I)c(O)c(I)c2)c(I)c1)C(=O)O` [thyroxine], the body weight ([8]; rats, literature) is given as “decrease in body weight” and the food intake ([8]; rats, literature) is given as “increase in food intake”.

With `C[C@]12CC[C@H](O)CC1=CC[C@@H]1[C@@H]2CC[C@]2(C)C(=O)CC[C@@H]12` [DHEA, Dihydroepiandosterone] the food intake ([5]; DHEA, short experiment, rats) was “significant decrease in food intake” and the “gain in body weight” value ([5]; DHEA, three day treatment, rats) was “capable of reducing the gain in body weight already after a three day treatment period”.

For `C[C@@H]1C[C@H]2[C@@H]3CCC4=CC(=O)C=C[C@]4(C)[C@@]3(F)[C@@H](O)C[C@]2(C)[C@@]1(O)C(=O)CO` [dexamethasone], the “stimulation of ob gene expression, comparison with insulin” value ([3]; dexamethasone 33 nM vs insulin 100 nM, 48 hours) was “stronger stimulation of ob gene expression than insulin”, the “production of ob messenger RNA in rat primary adipocytes” value ([3]; 48 hours) was “stimulated production of the ob messenger RNA” and the food consumption [5] was “reduced food consumption”. The “ob mRNA levels” value [6, 14] was “increase of ob mRNA levels” and the “increase of ob mRNA levels in rat adipose tissue” value ([6]; within 24 hr after a single injection of dexamethasone (3.7 μg/g)) was 2.2 fold.

With `CC(C)OC(=O)C(C)(C)Oc1ccc(C(=O)c2ccc(Cl)cc2)cc1` [fenofibrate] the “body or adipose tissue weight” value [5, 15] was “did not result in a change in body or adipose tissue weight”, the “liver weight after treatment” value ([5]; fenofibrate 0.5% w/w in food, 14 days, from 13.8±0.5) was 19.7 ± 2.5 g and the “ob mRNA levels” value [6, 15] was “did not result in a reduction of ob mRNA levels”. For the same molecule, the “transcriptional activity of PPARs” value [1] was “stimulate transcriptional activity of the PPAR nuclear hormone receptors”.
